Assay results from patent US20090117089A1, “GLYCOLIPIDS AND ANALOGUES THEREOF AS ANTIGENS FOR NK T CELLS” (The Rockefeller University, priority 2005, published 2009).
“Also recorded” adds a separate entry of the source.

Experiments:
[1] = tested on: Vα24i human NKT cell line; experiment: In vitro cytokine secretion assay using human NKT cell lines; format: cell-based; settings: for IFN-γ secretion / IL-4 secretion: CD14+ immature dendritic cells, 10 μg/ml glycolipid (1-10 μg/ml for 3-O-sulfo-α-galactosylceramide), 10 IU/ml IL-2
Experimental: (§1) Human NKT cell lines, expressing the Vα24i T cell receptor as well as CD161, were generated as follows: Anti-CD161 monoclonal antibodies, and anti-CD14 monoclonal antibodies, each coupled to magnetic beads (Miltenyi biotec, Auburn, Calif.), were used sequentially to isolate CD161^+ cells and CD14^+ cells from leukopaks. Immature dendritic cells were generated from the CD14^+ cells after a two-day incubation in the presence of 300 U/ml GM-CSF (R&D systems, Minneapolis, Minn.) and 100 U/ml IL-4 (R&D systems, Minneapolis, Minn.). Following irradiation with 2000 rads, the immature dendritic cells were co-cultured with syngeneic CD161^+ cells in the presence of 100 ng/ml of alpha-galactosylceramide and 10 IU/ml of IL-2 (Invitrogen, Carlsbad Calif.) for 10 to 14 days. After stimulating the CD161^+ cells a second time with alpha-galactosylceramide-pulsed, irradiated immature dendritic cells, NKT cell lines were shown by flow cytometry to express both CD161^+ and V 24i TCR (99% purity).
(§2) IFN-γ and IL-4 secretion by the Vα 24i human NKT cell line was determined by ELISA (BD Pharmingen, San Diego, Calif.) after culture for 16 hours. For these assays, 1×10^5 Vα 24i human NKT cells were co-cultured with 4×10^5 irradiated, immature CD14^+ dendritic cells, in the presence of the glycolipid compounds at 10 μg/ml in a 96-well flat-bottom plate.
as §1, with “of 100-0.1” for “of 100”
In some cases, Hela cells were transfected with a human CD1d construct [Xing et al. 2005. Bioorg Med Chem 13: 2907], and were used to present the glycolipids, via pulsing with the respective compounds at the indicated concentration, to NKT lines.
as §2, with “IFN-γ” for “IFN-γ and IL-4”

[2] = tested on: Vα24i human NKT cell line; experiment: as above; format: cell-based; settings: CD14+ DCs; 100-0.1 ng/mL; all doses
[3] = tested on: CD1d reactive T cell hybridomas with an invariant Vα14i T cell antigen receptor; experiment: 1.2 hybridoma assay (IL-2 release by ELISA); format: cell-based, mouse; settings: for IL-2 production (relative activity of fatty acyl chain analogs): 0.0001-1 μg/ml, CD1d transfected A20 cells; for IL-2 secretion: CD1d coated plates, Sphingomonas glycolipids and analogues
Experimental: As a measure of T cell activation, IL-2 release into the tissue culture medium was measured after 16 hours culture by an ELISA assay.
As a measure of T cell activation, IL-2 and IFN-γ release into the tissue culture medium was measured after 16 hours culture by an ELISA assay.

[4] = tested on: human CD161+ NK+NKT cells; experiment: Cytokine secretion by human CD161+ NK+NKT cells in the presence of CD14+ DCs; format: cell-based
Experimental: Human Vα24i NKT cells response to synthetic Sphingomonas and sulfatide glycolipids, in terms of IFN-γ (a) and IL-4 (b) release after culture with 4×10^5 autologous immature CD14+ dendritic cells pulsed with the indicated glycolipid antigens at 10 μg/ml. Negative controls included similar numbers of NKT cells and dendritic cells, cultured without added glycolipid. Data represent mean±S.D. of duplicate well; (c) in vitro INF-γ secretion by human CD161^+ NK+NKT cells (2×10^5/well) in the presence of CD14^+ DCs (4×10^5/well) and 20 μg/ml of various glycolipids; (d) in vitro IL-4 secretion by human CD161^+ NK+NKT cells (2×10^5/well) in the presence of CD14^+ DCs (4×10^5/well) and 20 μg/ml of various glycolipids.

[5] = tested on: spleen CD11c+ DCs; experiment: DC maturation in vivo (surface markers, flow cytometry); design: species or system mouse; settings: mouse, in vivo
Experimental: 2×10^7 irradiated J558-Ld^− cells, were injected i.v. or s.c. into Balb/c mice with or without α-Gal Cer as a DC maturation stimulus. In some experiments we compared α-Gal Cer to agonistic anti-CD40 mAb (1C10, 25 μg i.p.) or the toll like receptor ligands, poly IC ([…], Invivogen) or lipopolysaccharide (20 μgm, Sigma). The mice had been given CFSE-labeled PICTL CD8^+ T cells i.v. 1 d earlier, or were naive animals. In some experiments, mice were sacrificed 3 d later, and T cell division and activation in spleen were analyzed by flow cytometry. Additionally, 7 d or 2 months later, 5×10^6 live J558 tumor cells were inoculated subcutaneously. 5×10^6 Meth A fibrosarcoma was used as a control tumor for challenge. Tumor cell growth was measured with calipers every other day. Mice were scored positive for tumor as soon as tumors became palpable and grew progressively. Mice were euthanized when tumor size exceeded 400 mm^2.
T-cell division, phagocytosis of CFSE-labeled tumor cells and acquisition of cell surface-activation markers were determined by flow cytometry. Briefly, spleens were harvested and low-density splenocytes were stained with CD11c-APC and CD8α-PE, CD11b-PE, B220-PE or CD4-PE for the up-take examination. For in vivo proliferation of P1CTL T-cells, spleens were harvested and the splenocytes suspension was staining with CD8α-Cy, Vα8α-PE, CD25-PE, CD62L-PE. For intracellular cytokine staining, splenocytes were stimulated in vitro with 1 µg/ml P1A peptide in 5 μg/ml brefeldin A (Sigma-Aldrich) at 37° C. for 4 hrs. The cells were first stained with CD8α-Cy-Chrome™, fixed and permeabilized with cytofix-cytoperm buffer (BD Biosciences), and stained with PE conjugated mAbs to IL-2 or IFN-γ.
Flow cytometry. Acquisition of cell surface-activation markers was determined by flow cytometry. […] Spleen CD11c+ DCs were isolated using anti-CD11c magnetic beads and stained with CD11c-FITC, CD8α− allophycocyanin, and PE-Conjugated I-Ad, CD40, CD80, CD86, CD119, B7-H1 and B7-DC. We used a FACSCalibur™ with data analysis in FlowJo (Tree Star).

CCCCCCCCCCCCCCC[C@@H](O)[C@H](COC1OC(C(=O)O)C(O)C(O)C1O)NC(=O)[C@@H](O)CCCCCCCCCCCC (some centres unmarked) [Compound 6]
reactivity of human Vα24i NKT cells [1]: conserved

CCCCCCCCCCCCCC[C@@H](O)[C@@H](O)[C@H](COC1OC(CO)C(O)C(O)C1O)NC(=O)CCCCCCCc1ccccc1 (some centres unmarked) [Compound 84]
IFN-γ secretion compared to KRN [2]: consistently stimulating greater IFN-γ secretion | IL-2 production (relative activity of fatty acyl chain analogs) [3]: significant increase of IL-2 production

3-O-sulfo-β-galactosylceramide [Compound 10]
affinity for NKT lymphocytes [4]: minimal to no affinity for NKT lymphocytes | IFN-γ secretion [1]: elicit both IFN-γ and IL-4 production | IL-4 secretion [1]: elicit both IFN-γ and IL-4 production

CCCCCCCCCCCCCCC[C@@H](O)[C@H](COC1OC(CO)C(O)C(O)C1O)NC(=O)CCCCCCCCCCCCC (some centres unmarked) [Compound 7]
IL-2 secretion [3]: greater IL-2 secretion

2-Hexacosylamino-1-O-(3-O-sulfo-α-D-galactopyranosyl)-D-ribo-1,3,4-octadecantriol, Sodium Salt [Compound 4]
biological activity in the 1.2 hybridoma assay (IL-2 secretion) [3]: caused significant IL-2 secretion | activity relative to αGalCer (dose response curves, IL-2) ([3]; data not shown): somewhat less active than αGalCer | IL-2 release from the hybridomas ([3]; glycolipid at 10 μg/ml, 16 hours culture): stimulated significant IL-2 release | IL-4 secretion by human NKT cells ([4]; glycolipid presented by CD14+ DCs, 10-20 μg/mL): efficiently stimulated IL-4 and IFN-γ secretion | interferon-γ secretion by human NKT cells ([4]; glycolipid presented by CD14+ DCs, 10-20 μg/mL, compared to α-GalCer, Sodium Salt): superior; also recorded: efficiently stimulated IL-4 and IFN-γ secretion | IFN-γ secretion [1]: approximately half that of α-GalCer | IL-4 secretion [1]: approximately half that of α-GalCer

poly IC
phenotypic changes of DC maturation (CD40, CD86, MHC class II, B7-H1, B7-DC up, CD119 down) [5]: induced similar phenotypic changes of maturation

CCCCCCCCCCCCCCC[C@@H](O)[C@H](COC1OC(CO)C(O)C(O)C1O)NC(=O)[C@@H](O)CCCCCCCCCCCC (some centres unmarked) [Compound 8]
IL-2 secretion [3]: less able to activate IL-2 secretion when compared with 5

CCCCCCCCCCCCCC[C@@H](O)[C@@H](O)[C@H](COC1OC(CO)C(O)C(O)C1O)NC(=O)CCCCCc1ccccc1 (some centres unmarked) [Compound 83]
IFN-γ secretion compared to KRN [2]: consistently stimulating greater IFN-γ secretion | IL-2 production (relative activity of fatty acyl chain analogs) [3]: significant increase of IL-2 production | selectivity IFN-γ versus IL-4 production [1]: high ratio of IFN-γ/IL-4 activity

CCCCCCCCCCCCCCC[C@@H](O)[C@H](COC1OC(C(=O)O)C(O)C(O)C1O)NC(=O)CCCCCCCCCCCCC (some centres unmarked) [Compound 5]
reactivity of human Vα24i NKT cells [1]: conserved
